Experiments:
[1] = Exposure of amorphous Dorzolamide HCl to about 160° C. for about 15 minutes, crystal form by XRD; assay type: physicochemical; details: oven, open glass weighing bottle
Description: (§1) The scanning parameters are as follows: the range is preferably about 2° to about 40° 2θ over a substantially continuous scan at a rate of about 3° per minute. The accuracy of peak positions is defined as ±0.2° due to experimental differences, such as instrumentations, sample preparations, and the like.

[2] = Effect of varying relative humidity on amorphous Dorzolamide hydrochloride (hygroscopicity chamber; LOD by TGA, crystal form by XRD); assay type: physicochemical
Description: as §1
Thermal Gravimetric Analysis (TGA) is preferably performed with a Mettler Toledo TGA/SDTA 851^e. Sample weights preferably range from about 7 to about 15 mg, the heating rate is preferably about 10° C. per minute in a N2 stream having a flow rate of about 50 ml per minute over a scan range of about 30° to about 250° C.
Each of a series of 200 mg samples of amorphous Dorzolamide hydrochloride are exposed to a relative humidity (RH) of one of 0, 20, 40, 60, 80, and 100 percent for a period of 5 days at room temperature in a hygroscopicity chamber. The loss on drying (LOD) of the samples is measured by TGA before and after exposure, and the values obtained are plotted against the RH values. In addition, the crystal form of each sample is measured by XRD before and after the exposure.

[3] = RH 0 %, 5 days, room temperature
[4] = RH 20 %, 5 days, room temperature
[5] = RH 40 %, 5 days, room temperature

SMILES: CCN[C@H]1C[C@H](C)S(=O)(=O)c2sc(S(N)(=O)=O)cc21.Cl [Amorphous Dorzolamide HCl, 5,6-dihydro-4-(S)-ethylamino-6-(S)-methyl-4H-thieno-[2,3-b]thiopyran-2-sulfonamide-7,7-dioxyde hydrochloride]
- Crystal form by XRD after heating [1]: changed the material to the crystalline, anhydrous form II
- Crystal form by XRD ([2]; Original sample, before exposure): amorphous
- LOD (%) ([2]; Original sample, before exposure, LOD by TGA): 2.7%
- Crystal form by XRD [2, 3]: amorphous
- LOD (%) [2, 3]: 2.0%
- Crystal form by XRD [2, 4]: amorphous
- LOD (%) [2, 4]: 2.9%
- Crystal form by XRD [2, 5]: amorphous
- LOD (%) [2, 5]: 3.8%
- LOD (%) ([2]; RH 60 %, 5 days, room temperature): 0.2%
- Crystal form by XRD ([2]; RH 60 %, 5 days, room temperature, hydrochloride): Form II
- Crystal form by XRD ([2]; RH 60 %, 5 days, room temperature, listed as Dorzolamide HCl, hydrochloride): transforms to crystal form II
- LOD (%) ([2]; RH 80 %, 5 days, room temperature): 0.2%
- Crystal form by XRD ([2]; RH 80 %, 5 days, room temperature, hydrochloride): Form II
- Crystal form by XRD ([2]; RH 80 %, 5 days, room temperature, listed as Dorzolamide HCl, hydrochloride): transforms to crystal form II
- LOD (%) ([2]; RH 100 %, 5 days, room temperature): 0.2%
- Crystal form by XRD ([2]; RH 100 %, 5 days, room temperature, hydrochloride): Form II
- Crystal form by XRD ([2]; RH 100 %, 5 days, room temperature, listed as Dorzolamide HCl, hydrochloride): transforms to crystal form II

Source: patent publication US20060173068A1, “Amorphous and crystalline forms of dorzolamide hydrochloride and processes of making same” (priority 2005, published 2006)
